Laboratory results: article PMC6801405, “Discovery of 3-Arylquinoxaline Derivatives as Potential Anti-Dengue Virus Agents” (International Journal of Molecular Sciences, 2019)
Where two headings read alike, the source gives them in different places.

Assays:
DENV2 = assay: microbe, parasite or virus in culture; type: cell-based, dengue virus; settings: for SI (selectivity index, CC50/EC50): CC50 Huh-7 / EC50 DENV; for inhibition at 1 µM / inhibition at 10 µM / EC50: Dengue virus; for inhibition at 1 µM / inhibition at 10 µM: DENV2, 72 h; for inhibition at 1 µM / inhibition at 10 µM / DENV2 % Inhibition at 10 μM: Huh-7-DV-Fluc cells, three days; for inhibition at 10 µM / anti-DENV activity in words / DENV2 % Inhibition at 10 μM: 10 μM; for anti-DENV activity in words: >32% inhibition of DENV-2 at 10 μM considered as active
Description: Anti-DENV activities were determined by firefly luciferase activity.
Huh-7-DV-Fluc cells were seeded in 24-well plates at a density of 2 × 10^4 cells per well, and treated with the 3-arylquinoxaline compounds at two concentrations (1 and 10 μM) or 0.1% DMSO as control. After three days of incubation, the luciferase activity assay was performed using the Bright-Glo Luciferase assay system (Promega, Madison, WI, USA) according to the manufacturer’s instructions.

[1] = Cytotoxicity assay (XTT method); type: cell-based, Human; settings: human, mean ± SD; for viability at 72 h, 20 µM / viability at 72 h, 200 µM: Huh-7 cells, XTT; for viability at 72 h, 20 µM: read-out: Huh-7 Cell % viability at 20 μM; for viability at 72 h, 200 µM: read-out: Huh-7 Cell % viability at 200 μM; for CC50 at 72 h: uninfected Huh-7 cells, read-out: CC50 (concentration causing a 50% growth inhibition of uninfected Huh-7 cells)
Description: For cytotoxicity tests, run in parallel with antiviral assays, plates at an initial density of 5 × 10^3 cells/well were treated with or without serial dilutions of test compounds. Cell viability was determined after 72 h at 37 °C in a humidified CO2 (5%) atmosphere by the (2,3-bis[2-methyloxy-4-nitro-5-sulfophenyl]-2H-tetrazolium-5-carboxanilide) (XTT) method.

[2] = DENV2, DENV replication, mean ± SD, read-out: EC50 (concentration resulting in a 50% inhibition in virus production)

Row | SMILES | melting point [°C] | SI (selectivity index, CC50/EC50) (DENV2) | inhibition at 1 µM (DENV2; mean ± SD) [%] | inhibition at 10 µM (DENV2; mean ± SD) [%] | EC50 (DENV2; [2]) [µM] | viability at 72 h, 20 µM [1] [%] | viability at 72 h, 200 µM [1] [%] | CC50 at 72 h [1] [µM] | anti-DENV activity in words (DENV2) | DENV2 % Inhibition at 10 μM (DENV2; mean ± SD) [%] | EC50 (DENV2; DENV2, read-out: EC50 (concentration resulting in a 50% inhibition in virus production)) [µM]
1 | Oc1ccc(Cc2nc3ccccc3nc2-c2ccc(O)cc2)cc1 | 184.8 to 185.9 | – | – | – | – | – | – | – | – | – | –
2 | COc1ccc(-c2cc3ccccc3nc2C(O)c2ccccc2)cc1 (stereo not shown) [Compound 3, 2-(hydroxyphenylmethyl)-3-(4-methoxyphenyl)quinoline, reference compound] | – | 11.07 | 12.4 ± 2.67 | 50.1 ± 3.47 | 12.6 ± 2.16 | 90.3 ± 2.62 | 21.9 ± 3.55 | 139 ± 2.32 | – | – | –
3 | O=C(c1ccc(O)cc1)c1nc2ccccc2cc1-c1ccc(O)cc1 [Compound 4, 2-(4-hydroxybenzoyl)-3-(4-hydroxyphenyl)quinoline, reference compound] | – | 12.44 | 11.2 ± 2.31 | 41.2 ± 2.88 | 13.2 ± 1.23 | 96.6 ± 8.78 | 41.4 ± 5.71 | 164 ± 2.32 | – | – | –
4 | OC(c1ccccc1)c1nc2ccccc2nc1-c1ccccc1 (stereo not shown) [Compound 15a, Phenyl(3-phenylquinoxalin-2-yl)methanol] | 146 to 147 | – | 2.13 ± 1.12 | 5.31 ± 1.73 | – | 105 ± 5.66 | 59.9 ± 8.33 | – | inactive | – | –
5 | COc1ccc(C(O)c2nc3ccccc3nc2-c2ccccc2)cc1 (stereo not shown) [Compound 15b, (4-Methoxyphenyl)(3-phenylquinoxalin-2-yl)methanol] | 166 to 168.6 | – | 24.3 ± 2.51 | 48 | – | 103 ± 1.79 | 61.4 ± 2.67 | – | moderately active | 48.67 ± 4.71 | –
6 | OC(c1ccccc1)c1nc2cc(Cl)c(Cl)cc2nc1-c1ccccc1 (stereo not shown) [Compound 16a, (6,7-Dichloro-3-phenylquinoxalin-2-yl)(phenyl)methanol] | 136.4 to 136.9 | – | 1.97 ± 0.72 | 6.42 ± 2.97 | – | 108 ± 8.91 | 20.6 ± 5.37 | – | – | – | –
7 | COc1ccc(C(O)c2nc3cc(Cl)c(Cl)cc3nc2-c2ccccc2)cc1 (stereo not shown) [Compound 16b, (6,7-Dichloro-3-phenylquinoxalin-2-yl)(4-methoxyphenyl)methanol] | 157.2 to 157.6 | – | 2.41 ± 1.48 | 9 | – | 104 ± 4.18 | 73 ± 9.05 | – | inactive | 9.46 ± 2.88 | –
8 | OC(c1ccccc1)c1nc2ccccc2nc1-c1ccc(F)cc1 (stereo not shown) [Compound 17a, [3-(4-Fluorophenyl)quinoxalin-2-yl](phenyl)methanol] | 157.4 to 158 | – | 2.58 ± 0.85 | 4.78 ± 1.93 | – | 96.3 ± 3.52 | 73.3 ± 6.57 | – | – | – | –
9 | COc1ccc(C(O)c2nc3ccccc3nc2-c2ccc(F)cc2)cc1 (stereo not shown) [Compound 17b, [3-(4-Fluorophenyl)quinoxalin-2-yl](4-methoxyphenyl)methanol] | 173 to 174.7 | – | 19.2 ± 3.5 | 22 | – | 102 ± 1.98 | 101 ± 1.27 | – | – | 22.89 ± 4.54 | –
10 | OC(c1ccccc1)c1nc2cc(Cl)c(Cl)cc2nc1-c1ccc(F)cc1 (stereo not shown) [Compound 18a, [6,7-Dichloro-3-(4-fluorophenyl)quinoxalin-2-yl](phenyl)methanol] | 150 to 150.2 | – | 3.41 ± 1.11 | 6.74 ± 1.57 | – | 102 ± 3.96 | 21.5 ± 1.6 | – | – | – | –
11 | COc1ccc(-c2nc3ccccc3nc2C(O)c2ccc(OC)cc2)cc1 (stereo not shown) [Compound 19b, (4-Methoxyphenyl)[3-(4-methoxyphenyl)quinoxalin-2-yl]methanol] | 132.4 to 136 | – | 35.5 ± 4.82 | 47.7 ± 5.41 | – | 96.4 ± 1.24 | 21.3 ± 1.55 | – | – | – | –
12 | COc1ccc(-c2nc3cc(Cl)c(Cl)cc3nc2C(O)c2ccccc2)cc1 (stereo not shown) [Compound 20a, [6,7-Dichloro-3-(4-methoxyphenyl)quinoxalin-2-yl](phenyl)methanol] | 156.8 to 157.1 | >35.21 | 16.3 ± 3.42 | > 50 | – | 99.4 ± 3.31 | 27.1 ± 1.24 | > 200 | – | 58.71 ± 2.86 | 5.68 ± 0.81
13 | COc1ccc(-c2nc3cc(Cl)c(Cl)cc3nc2C(O)c2ccc(OC)cc2)cc1 (stereo not shown) [Compound 20b, [6,7-Dichloro-3-(4-methoxyphenyl)quinoxalin-2-yl](4-methoxyphenyl)methanol] | 144.1 to 144.5 | – | 2.75 ± 1.69 | 4.39 ± 1.52 | – | 95.5 ± 3.96 | 34.2 ± 4.97 | – | inactive | – | –
14 | O=C(c1ccccc1)c1nc2ccccc2nc1-c1ccccc1 [Compound 21a, Phenyl(3-phenylquinoxalin-2-yl)methanone] | – | – | 2.76 ± 1.55 | 7.98 ± 2.14 | – | 107 ± 2.3 | 79.5 ± 7.07 | – | inactive | – | –
15 | O=C(c1ccccc1)c1nc2cc(Cl)c(Cl)cc2nc1-c1ccccc1 [Compound 22a, (6,7-Dichloro-3-phenylquinoxalin-2-yl)(phenyl)methanone] | 154.3 to 156.8 | – | 12.7 ± 3.91 | 19.7 ± 4.17 | – | 109 ± 1.36 | 103 ± 2.67 | – | – | – | –
16 | COc1ccc(C(=O)c2nc3cc(Cl)c(Cl)cc3nc2-c2ccccc2)cc1 [Compound 22b, (6,7-Dichloro-3-phenylquinoxalin-2-yl)(4-methoxyphenyl)methanone] | 171.9 to 172.3 | – | 5.19 ± 2.78 | 24.7 ± 1.89 | – | 103 ± 8.3 | 92 ± 3.08 | – | – | – | –
17 | O=C(c1ccccc1)c1nc2ccccc2nc1-c1ccc(F)cc1 [Compound 23a, [3-(4-Fluorophenyl)quinoxalin-2-yl](phenyl)methanone] | 94.1 to 96.6 | – | 34.2 ± 5.12 | 40.8 ± 2.58 | – | 98.6 ± 5.68 | 87.6 ± 5.75 | – | – | – | –
18 | COc1ccc(C(=O)c2nc3ccccc3nc2-c2ccc(F)cc2)cc1 [Compound 23b, [3-(4-Fluorophenyl)quinoxalin-2-yl](4-methoxyphenyl)methanone] | 147.6 to 147.9 | – | 16.4 ± 3.11 | 33.6 ± 4.21 | – | 104 ± 1.85 | 103.3 ± 1.03 | – | – | – | –
19 | O=C(c1ccccc1)c1nc2cc(Cl)c(Cl)cc2nc1-c1ccc(F)cc1 [Compound 24a, (6,7-Dichloro-3-(4-fluorophenyl)quinoxalin-2-yl)(phenyl)methanone] | 184.3 to 186.4 | – | 2.54 ± 1.21 | 23.5 ± 3.71 | – | 106 ± 2.12 | 91.9 ± 2.83 | – | – | – | –
20 | COc1ccc(-c2nc3ccccc3nc2C(=O)c2ccccc2)cc1 [Compound 25a, [3-(4-Methoxyphenyl)quinoxalin-2-yl](phenyl)methanone] | 93.9 to 98.2 | – | 40.4 ± 2.22 | 47.5 ± 3.51 | – | 101 ± 2.39 | 100 ± 4.59 | – | – | – | –
21 | COc1ccc(C(=O)c2nc3ccccc3nc2-c2ccc(OC)cc2)cc1 [Compound 25b, (4-Methoxyphenyl)[3-(4-methoxyphenyl)quinoxalin-2-yl]methanone] | 144.5 to 146.2 | – | 41.5 ± 3.25 | 49.7 ± 4.38 | – | 107 ± 3.03 | 99.4 ± 2.14 | – | – | – | –
22 | COc1ccc(-c2nc3cc(Cl)c(Cl)cc3nc2C(=O)c2ccccc2)cc1 [Compound 26a, [6,7-Dichloro-3-(4-methoxyphenyl)quinoxalin-2-yl](phenyl)methanone] | 173.9 to 174.3 | – | 1.95 ± 0.82 | 14.5 ± 2.55 | – | 99.4 ± 6.5 | 35.3 ± 4.95 | – | – | – | –
23 | COc1ccc(C(=O)c2nc3cc(Cl)c(Cl)cc3nc2-c2ccc(OC)cc2)cc1 [Compound 26b, [6,7-Dichloro-3-(4-methoxyphenyl)quinoxalin-2-yl](4-methoxyphenyl)methanone] | 178.8 to 179 | – | 1.17 ± 0.41 | 19.3 ± 3.85 | – | 104 ± 4.22 | 99.1 ± 2.4 | – | inactive | – | –
24 | O=C(c1ccc(O)cc1)c1nc2ccccc2nc1-c1ccccc1 [Compound 27, (4-Hydroxyphenyl)(3-phenylquinoxalin-2-yl)methanone] | 196.5 to 199.3 | – | 44.9 ± 3.68 | 48.7 ± 3.48 | – | 102 ± 2.84 | 18.4 ± 2.33 | – | – | – | –
25 | O=C(c1ccc(O)cc1)c1nc2ccccc2nc1-c1ccc(O)cc1 [Compound 29, (4-Hydroxyphenyl)(3-(4-hydroxyphenyl)quinoxalin-2-yl)methanone] | – | – | 2.36 ± 1.11 | 4.25 ± 1.39 | – | 104 ± 2.91 | 51.9 ± 1.62 | – | – | – | –
